Values joined by “and” are separate entries in the source; they are usually repeats but may differ in a detail not shown here. Equal values may be shown once. Read-outs that look alike come from different tables or passages of the source. Square brackets hold non-standard residues; d marks the D form. Peptide text beside a SMILES is read from it. Gly(N-(CH2)3-guanidino) = N=C(N)NCCCNCC(=O)O; Sar = CNCC(=O)O
Tests used:
[1] = molecular target: mMC1R (Mus musculus, UniProt Q01727); assay: cAMP AlphaScreen bioassay, HEK293 cells stably expressing mMC1R; conditions: for EC50: read-out: mMC1R EC50, Example 2 (Table 7, first EC50 column), ± SEM, >100,000 = no agonist activity up to 100 μM
Chain of mMC1R (Q01727 whole entry): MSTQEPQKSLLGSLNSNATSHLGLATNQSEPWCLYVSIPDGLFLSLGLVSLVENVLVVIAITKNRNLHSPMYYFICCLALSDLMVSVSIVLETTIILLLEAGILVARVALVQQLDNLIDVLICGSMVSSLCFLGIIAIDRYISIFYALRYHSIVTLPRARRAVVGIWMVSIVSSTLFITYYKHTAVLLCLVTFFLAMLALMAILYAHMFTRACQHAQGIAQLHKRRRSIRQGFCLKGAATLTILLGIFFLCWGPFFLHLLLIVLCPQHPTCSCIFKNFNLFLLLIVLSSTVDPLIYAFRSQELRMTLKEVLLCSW

[2] = molecular target: mMC3R (Mus musculus, UniProt P33033); conditions: Example 2; for mMC3R pA2: antagonist, Schild analysis with NDP-MSH, ± SEM, <5.5 = no antagonist potency up to 10,000 nM
Chain of mMC3R (P33033 whole entry): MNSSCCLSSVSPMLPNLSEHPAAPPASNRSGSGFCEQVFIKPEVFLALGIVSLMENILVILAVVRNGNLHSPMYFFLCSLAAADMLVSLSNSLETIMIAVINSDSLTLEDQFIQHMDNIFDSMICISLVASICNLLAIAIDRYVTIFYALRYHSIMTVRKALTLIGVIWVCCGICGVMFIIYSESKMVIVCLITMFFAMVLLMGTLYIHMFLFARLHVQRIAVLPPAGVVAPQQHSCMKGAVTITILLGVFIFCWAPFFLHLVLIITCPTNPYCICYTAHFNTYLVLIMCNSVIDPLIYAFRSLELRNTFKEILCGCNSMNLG

[3] = molecular target: mMC5R (Mus musculus, UniProt P41149)
Chain of mMC5R (P41149 whole entry): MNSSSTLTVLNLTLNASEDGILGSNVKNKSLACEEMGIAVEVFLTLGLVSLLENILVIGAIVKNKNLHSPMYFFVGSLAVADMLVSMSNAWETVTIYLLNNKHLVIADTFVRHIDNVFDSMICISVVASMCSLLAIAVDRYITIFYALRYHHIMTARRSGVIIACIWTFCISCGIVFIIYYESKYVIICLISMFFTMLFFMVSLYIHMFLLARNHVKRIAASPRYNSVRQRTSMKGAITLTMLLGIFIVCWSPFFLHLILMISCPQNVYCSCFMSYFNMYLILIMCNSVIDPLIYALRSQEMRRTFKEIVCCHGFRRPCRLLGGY

[4] = Example 2, basal to plateau signal, sigmoidal dose-response

Row | SMILES | mMC1R pharmacology observed (Partial Agonist) ([1]; Example 2) | mMC3R pA2 [2] | mMC5R pharmacology observed (Partial Agonist / Inverse Agonist) ([3]; Example 2) | further results
1 | C[C@@H]1NC(=O)[C@H](CC(N)=O)NC(=O)[C@H](Cc2ccccc2)NC(=O)[C@H](Cc2ccccc2)NC(=O)CN(CCCNC(=N)N)C(=O)[C@@H]2CCCN2C(=O)[C@H]2CCCN2C(=O)[C@H](Cc2ccccc2)NC1=O [MDE7-26-1c, c[Pro-NArg-Phe-Phe-Asn-Ala-Phe-DPro]] (cyclo(P[Gly(N-(CH2)3-guanidino)]FFNAF[dP])) | Partial | – | – | mMC1R partial agonist, percentage of activation relative to NDP-MSH ([1]; Example 2, maximal signal): 50% NDP-MSH
2 | CN1CC(=O)N[C@@H](Cc2ccccc2)C(=O)N2CCC[C@@H]2C(=O)N2CCC[C@H]2C(=O)N[C@@H](CCCNC(=N)N)C(=O)N[C@@H](Cc2ccccc2)C(=O)N[C@@H](Cc2ccccc2)C(=O)N[C@@H](CC(N)=O)C1=O [MDE7-26-4c, c[Pro-Arg-Phe-Phe-Asn-NAla-Phe-DPro]] (cyclo(PRFFN[Sar]F[dP])) | – | – | – | EC50 [1]: 1000 nM
3 | C[C@@H]1NC(=O)[C@H](CC(N)=O)NC(=O)[C@H](Cc2ccccc2)NC(=O)[C@H](Cc2ccccc2)NC(=O)[C@H](CCCNC(=N)N)NC(=O)[C@@H]2CCCN2C(=O)[C@H]2CCCN2C(=O)CN(Cc2ccccc2)C1=O [MDE7-26-5c, c[Pro-Arg-Phe-Phe-Asn-Ala-NPhe-DPro]] | – | – | – | mMC3R percent maximal stimulatory response ([2]; @ 100 μM): 60% @; mMC1R percent maximal stimulatory response ([1]; Example 2, @ 100 μM, EC50 not determinable): 85% @
4 | C[C@@H]1NC(=O)[C@H](CN)NC(=O)[C@H](Cc2ccccc2)NC(=O)[C@H](Cc2ccccc2)NC(=O)[C@H](CCCNC(=N)N)NC(=O)[C@@H]2CCCN2C(=O)[C@H]2CCCN2C(=O)CN(Cc2ccccc2)C1=O [MDE8-108-7c, c[Pro-Arg-Phe-Phe-Dap-Ala-NPhe-DPro]] | – | – | – | mMC5R inverse agonist, percent decrease from basal [3]: −10%
5 | C[C@@H]1NC(=O)[C@H](CN)NC(=O)[C@H](Cc2ccccc2)NC(=O)CN(Cc2ccccc2)C(=O)[C@H](CCCNC(=N)N)NC(=O)[C@@H]2CCCN2C(=O)[C@H]2CCCN2C(=O)[C@H](Cc2ccccc2)NC1=O [MDE9-32c, c[Pro-Arg-NPhe-Phe-Dap-Ala-Phe-DPro]] | Partial | 6.9 ± 0.3 | Partial | –
6 | C[C@@H]1NC(=O)[C@H](CC(N)=O)NC(=O)[C@H](Cc2ccccc2)NC(=O)CN(Cc2ccccc2)C(=O)[C@H](CCCNC(=N)N)NC(=O)[C@@H]2CCCN2C(=O)[C@H]2CCCN2C(=O)[C@H](Cc2ccccc2)NC1=O [MDE9-77c, c[Pro-Arg-NPhe-Phe-Asn-Ala-Phe-DPro]] | – | 5.8 ± 0.1 | Inverse | mMC5R inverse agonist, percentage change from basal ([3]; Example 2, @ 100 μM, no sigmoidal dose-response curve): −10% @; EC50 [1]: 240 nM
7 | C[C@@H]1NC(=O)[C@H](CC(N)=O)NC(=O)CN(Cc2ccccc2)C(=O)[C@H](Cc2ccccc2)NC(=O)[C@H](CCCNC(=N)N)NC(=O)[C@@H]2CCCN2C(=O)[C@H]2CCCN2C(=O)[C@H](Cc2ccccc2)NC1=O [MDE9-88c, c[Pro-Arg-Phe-NPhe-Asn-Ala-Phe-DPro]] | Partial | 6.0 ± 0.1 | Inverse | mMC5R pA2 ([3]; Example 2, antagonist, Schild analysis with NDP-MSH, ± SEM): 6.1 and 6.1 ± 0.1; mMC5R inverse agonist, percent decrease from basal [3, 4]: −10%
8 | C[C@@H]1NC(=O)[C@H](CN)NC(=O)CN(Cc2ccccc2)C(=O)[C@H](Cc2ccccc2)NC(=O)[C@H](CCCNC(=N)N)NC(=O)[C@@H]2CCCN2C(=O)[C@H]2CCCN2C(=O)[C@H](Cc2ccccc2)NC1=O [MDE9-93c, c[Pro-Arg-Phe-NPhe-Dap-Ala-Phe-DPro]] | Partial | 7.1 ± 0.1 | Inverse | mMC5R inverse agonist, percent decrease from basal [3, 4]: −10%
